Results published in ChEMBL document CHEMBL1201862, “PubChem BioAssay data set” (2004).
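A five-concentration, 48-hour dose response in 96-well plates underlies each endpoint, interpolated linearly between surrounding concentrations. The concentration for 50% growth inhibition is given as GI50.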 The source made the active and inactive calls. No stated cut-off is given here; in the data, active = GI50 up to about 1.1 µM and inactive = higher.

What was measured:
Test in all cases: growth of human tumour cells (NCI), 48 h
[1] = test system: CCRF-CEM
[2] = test system: COLO 205
[3] = test system: HOP-92
[4] = test system: K562
[5] = test system: MCF7
[6] = test system: Malme-3M
[7] = test system: NCI-H23
[8] = test system: NCI-H460
[9] = test system: OVCAR-3
[10] = test system: OVCAR-5
[11] = test system: OVCAR-8
[12] = test system: PC-3
[13] = test system: RPMI-8226
[14] = test system: SNB-19
[15] = test system: SW-620
[16] = test system: T47D
[17] = test system: TK-10
[18] = test system: U-251
[19] = test system: UACC-257
[20] = test system: UO-31

SMILES	GI50 [1]	GI50 [2]	GI50 [3]	GI50 [4]	GI50 [5]	GI50 [6]	GI50 [7]	GI50 [8]	GI50 [9]	GI50 [10]	GI50 [11]	GI50 [12]	GI50 [13]	GI50 [14]	GI50 [15]	GI50 [16]	GI50 [17]	GI50 [18]	GI50 [19]	GI50 [20]
O=C1C(Cl)=C(Nc2ccc(S(=O)(=O)Nc3ccccn3)cc2)C(=O)c2ccccc21	3.68 µM (inactive)	13.9 µM (inactive)	5.7 µM (inactive)	2.23 µM (inactive)	5.15 µM (inactive)	2.96 µM (inactive)	10.8 µM (inactive)	4.53 µM (inactive)	4.65 µM (inactive)	17.9 µM (inactive)	4.09 µM (inactive)	12.8 µM (inactive)	3.52 µM (inactive)	16.4 µM (inactive)	5.78 µM (inactive)	6.08 µM (inactive)	7.98 µM (inactive)	5.6 µM (inactive)	5 µM (inactive)	9.84 µM (inactive)
CCOC(=O)Nc1ccc(S(=O)(=O)Nn2cnnc2)cc1	23.9 µM (inactive)	39.9 µM (inactive)	63.7 µM (inactive)	27.2 µM (inactive)	41.2 µM (inactive)	44.3 µM (inactive)	> 100 µM (inactive)	50 µM (inactive)	27.9 µM (inactive)	> 100 µM (inactive)	> 100 µM (inactive)	57.4 µM (inactive)	22.6 µM (inactive)	> 100 µM (inactive)	33.3 µM (inactive)	> 100 µM (inactive)	85.5 µM (inactive)	44.3 µM (inactive)	> 100 µM (inactive)	60.1 µM (inactive)
CCCCn1cnc2c(c(CC#N)nn2-c2ccccc2)c1=N	47.6 µM (inactive)	30.7 µM (inactive)	52.2 µM (inactive)	34 µM (inactive)	43.2 µM (inactive)	63.5 µM (inactive)	51.9 µM (inactive)	39.9 µM (inactive)	63.7 µM (inactive)	> 100 µM (inactive)	41.4 µM (inactive)	36.8 µM (inactive)	27.4 µM (inactive)	> 100 µM (inactive)	41.9 µM (inactive)	35.7 µM (inactive)	64.7 µM (inactive)	37.9 µM (inactive)	35.4 µM (inactive)	60.4 µM (inactive)
CC1=C(Br)C(=O)C(C)=C(Br)C1=O.Cc1c(O)c(Br)c(C)c(O)c1Br	0.216 µM (active)	1.98 µM (inactive)	1.78 µM (inactive)	1.41 µM (inactive)	1.96 µM (inactive)	2.1 µM (inactive)	2.21 µM (inactive)	6.71 µM (inactive)	1.83 µM (inactive)	10.8 µM (inactive)	1.93 µM (inactive)	2.05 µM (inactive)	2.27 µM (inactive)	18.1 µM (inactive)	1.97 µM (inactive)	2.52 µM (inactive)	1.64 µM (inactive)	6.47 µM (inactive)	1.6 µM (inactive)	1.85 µM (inactive)
O=C(O)/C=N/NC(=S)NC1CCCCC1	> 100 µM (inactive)	> 100 µM (inactive)	> 100 µM (inactive)	> 100 µM (inactive)	> 100 µM (inactive)	> 100 µM (inactive)	> 100 µM (inactive)	> 100 µM (inactive)	> 100 µM (inactive)	> 100 µM (inactive)	> 100 µM (inactive)	> 100 µM (inactive)	> 100 µM (inactive)	> 100 µM (inactive)	> 100 µM (inactive)	> 100 µM (inactive)	> 100 µM (inactive)	> 100 µM (inactive)	> 100 µM (inactive)	> 100 µM (inactive)
C[N+](C)(C)c1ncnc2c1ncn2C1CCCCO1 (centres undefined)	> 100 µM (inactive)	> 100 µM (inactive)	> 100 µM (inactive)	> 100 µM (inactive)	> 100 µM (inactive)	> 100 µM (inactive)	> 100 µM (inactive)	> 100 µM (inactive)	> 100 µM (inactive)	> 100 µM (inactive)	> 100 µM (inactive)	> 100 µM (inactive)	> 100 µM (inactive)	> 100 µM (inactive)	> 100 µM (inactive)	> 100 µM (inactive)	> 100 µM (inactive)	> 100 µM (inactive)	> 100 µM (inactive)	> 100 µM (inactive)
C=C(C(=O)OC)N1C(=O)CC(C)C1=O (centres undefined)	1.7 µM (inactive)	4.2 µM (inactive)	1.95 µM (inactive)	2.87 µM (inactive)	10.3 µM (inactive)	2.45 µM (inactive)	17.9 µM (inactive)	18.1 µM (inactive)	8.05 µM (inactive)	15.1 µM (inactive)	15.3 µM (inactive)	16.1 µM (inactive)	4.91 µM (inactive)	21.4 µM (inactive)	9.35 µM (inactive)	11.1 µM (inactive)	6.79 µM (inactive)	17.4 µM (inactive)	12.3 µM (inactive)	13.1 µM (inactive)
O=S(=O)(CC#CCS(=O)(=O)c1ccccc1)c1ccccc1	0.0982 µM (active)	1.95 µM (inactive)	1.61 µM (inactive)	1.58 µM (inactive)	1.99 µM (inactive)	1.9 µM (inactive)	2.98 µM (inactive)	12.6 µM (inactive)	1.55 µM (inactive)	4.63 µM (inactive)	1.76 µM (inactive)	7.45 µM (inactive)	1.23 µM (inactive)	16.3 µM (inactive)	0.891 µM (active)	1.95 µM (inactive)	2.72 µM (inactive)	8.55 µM (inactive)	4.32 µM (inactive)	1.42 µM (inactive)
CC1=C(C(=O)Nc2ccccc2)C(c2ccc(C)o2)C(C#N)=C(SCc2ccccc2)N1 (centres undefined)	13.2 µM (inactive)	31.3 µM (inactive)	5.25 µM (inactive)	14.4 µM (inactive)	19.8 µM (inactive)	5.77 µM (inactive)	> 100 µM (inactive)	> 100 µM (inactive)	51.9 µM (inactive)	> 100 µM (inactive)	> 100 µM (inactive)	> 55.8 µM (inactive)	25.1 µM (inactive)	> 100 µM (inactive)	> 58.6 µM (inactive)	13.3 µM (inactive)	> 65.3 µM (inactive)	> 100 µM (inactive)	> 100 µM (inactive)	99.3 µM (inactive)
OCCNc1nc2c(N3CCCC3)nc(N3CCNCC3)nc2nc1NCc1ccccc1	10.8 µM (inactive)	11.7 µM (inactive)	7.8 µM (inactive)	14 µM (inactive)	14.3 µM (inactive)	19.6 µM (inactive)	18.2 µM (inactive)	15.5 µM (inactive)	4.92 µM (inactive)	12.1 µM (inactive)	15.9 µM (inactive)	16.9 µM (inactive)	16.7 µM (inactive)	15.8 µM (inactive)	19.1 µM (inactive)	12.5 µM (inactive)	15 µM (inactive)	11.1 µM (inactive)	17.3 µM (inactive)	15.3 µM (inactive)
CC(=O)Nc1ccc2c3c(cc(O)c2c1)N(C(=O)CCCC(=O)N1CC(CCl)c2c1cc(O)c1cc(NC(C)=O)ccc21)CC3CCl (centres undefined)	< 0.01 µM (active)	0.0154 µM (active)	0.0199 µM (active)	< 0.01 µM (active)	< 0.01 µM (active)	0.01 µM (active)	< 0.01 µM (active)	< 0.01 µM (active)	0.0111 µM (active)	0.0198 µM (active)	< 0.01 µM (active)	0.0129 µM (active)	0.0109 µM (active)	< 0.01 µM (active)	0.0392 µM (active)	< 0.01 µM (active)	0.022 µM (active)	< 0.01 µM (active)	0.0114 µM (active)	< 0.0166 µM (active)
CCOC(=O)c1ccc(Nc2cnc3ccc(C(F)(F)F)cc3n2)cc1	12.1 µM (inactive)	15.3 µM (inactive)	6.18 µM (inactive)	19 µM (inactive)	19.1 µM (inactive)	21.4 µM (inactive)	15 µM (inactive)	14.2 µM (inactive)	19.5 µM (inactive)	24.9 µM (inactive)	12.8 µM (inactive)	19.2 µM (inactive)	27.2 µM (inactive)	28.1 µM (inactive)	15.2 µM (inactive)	18.7 µM (inactive)	12.3 µM (inactive)	16.8 µM (inactive)	18.4 µM (inactive)	20.1 µM (inactive)
CCC/C(Cl)=N\OC(=O)Nc1ccc(F)cc1	1.63 µM (inactive)	3.16 µM (inactive)	4.43 µM (inactive)	1.89 µM (inactive)	20 µM (inactive)	6.87 µM (inactive)	20.3 µM (inactive)	> 100 µM (inactive)	5.24 µM (inactive)	18.7 µM (inactive)	25.4 µM (inactive)	17.3 µM (inactive)	6.01 µM (inactive)	19.2 µM (inactive)	7 µM (inactive)	7.24 µM (inactive)	15.7 µM (inactive)	18.2 µM (inactive)	16.7 µM (inactive)	17.7 µM (inactive)
Clc1cccc(Cl)c1C1ON=C(c2ccccc2)N1C12CC3CC(CC(C3)C1)C2 (centres undefined)	10.4 µM (inactive)	11.9 µM (inactive)	13.3 µM (inactive)	6.7 µM (inactive)	0.121 µM (active)	14.8 µM (inactive)	31 µM (inactive)	13.7 µM (inactive)	9.38 µM (inactive)	> 100 µM (inactive)	32.7 µM (inactive)	4.11 µM (inactive)	6.64 µM (inactive)	67.5 µM (inactive)	–	11.4 µM (inactive)	63.7 µM (inactive)	62.5 µM (inactive)	3.29 µM (inactive)	58.5 µM (inactive)
